Assay results taken from patent US20240423952A1, “COMPOSITIONS AND METHODS FOR TREATING CONGENITAL DISORDERS” (Ibagen Pharmaceuticals, Inc., priority 2021, published 2024).
Several values for one entry are separate records, joined by “and”; a condition that tells them apart may be missing. Identical values can stand only once. Counter-ions that a name gives are not always drawn.

Tests used:
[1] = test system: EG9152 GOF worms (C. elegans NALCN(gf) model); test: Screen of putative NALCN antagonists by motor behavior, GOF worms on compound agar; type: in vivo
Procedure: (§1) Compounds were dissolved in the vehicle in which they were the most soluble (DMSO or molecular grade water). […] Microwave to dissolve (note: this will boil over rapidly). The screen is performed in a 24-well flat-bottom plate. […] Proceed to next step quickly. […] Immediately begin mixing with pipette tip until the compound dissolves (at this point the mixture should be clear). Fill the remainder of the plate (I usually prepare duplicate wells for each compound) and cover with aluminum foil to protect the compounds from light. Leave at room temperature overnight to allow the plate to dry before screening. […] Prepare at least 4 small plates for each line. […] Pick a line to start with. […] Start timing as soon as a well has been filled. […] Touch the tail of each worm gently with a platinum wire to promote motion. Record any observations. (I like to record the proportion of worms that retain the original phenotype, the proportion that show full body paralysis/death, and the proportion that show paralysis of the neck only).

N2 non-transgenic worms = test: Screen of putative NALCN antagonists by motor behavior, N2 control worms on compound agar; type: in vivo, C. elegans
Procedure: as §1

Outward K+ currents = test: Electrophysiology tests, whole-cell recording of E16 embryonic cortical neurons; type: cell-based; details: mouse E16 cortical neurons, ramp −60~+80 mV, quantified at +80 mV (figure legends)
Procedure: Briefly, the cerebral cortex was isolated from embryos of E16 pregnant mouse (C57/BL6) and cut into small cubes. After being digested in 0.05% Trypsin for 25-30 mins in 37° C. in incubator, the Trypsin was neutralized with 1-2 ml DMEM (containing 10% FBS. The pellets were then triturated with a pipette for 10-15 time and then diluted into plating media (DMEM with 10% FBS). The cell suspension was sieved through a […] nylon filter and plated onto cover slips coated with poly-D-lysine (PDL) in 35 mm dishes at density of 2×10^5 cells per dish. After culturing for 2 hrs in incubator, the plating media was replaced with the following media: Neurobasal media supplemented with 2% B27. Neurobasal media was changed every 3 days until the experiment start.
Membrane potentials of neurons were recorded in whole-cell configuration at 20° C.-22° C. in a mouse E16 embryonic cortical neuron preparation. The pipette solution contained (in mM): K-Gluconate 115; KCl 25; CaCl2) 0.1; MgCl2 5; BAPTA 1; HEPES 10; Na2ATP 5; Na2GTP 0.5; cAMP 0.5; cGMP 0.5, pH 7.2 with KOH, 320 mOsm. The bath solution consisted of (in mM): NaCl 150; KCl 5; CaCl2) 5; MgCl2 1; glucose 10; sucrose 5; HEPES 15, pH 7.3 with NaOH, 330 mOsm. For zero and 15 Na+ solution, extracellular Na+ ([Na+]o) was replaced with N-methyl-D-glucamine (NMDG+) or Tris+. RMP was recorded at 0 pA. […]

## CCOC(=O)c1ccc(N)cc1 [Benzocaine]
[1]; 2.4 mM, 20 min, Trials 3-4
  proportion of worms: rescue: 20 min: 40% and 20 min: 33%
[1]; 2.4 mM, 40 min, Trials 3-4
  proportion of worms: rescue: 40 min: 8% and 40 min: 11%
[1]; 4.71 mM, 30 min, Trial 1
  Rescue worms still move fairly ...: quickly.
  amplitude of body bends overall: Reduced
[1]; 4.71 mM, 30 min, Trials 1-2
  proportion of worms: rescue: 30 min: 38% and 30 min: 8%
[1]; 4.71 mM, 1 hr, Trials 1-2
  proportion of worms: LOF: 1 hr: 100%
[1]; remark for the trials at 4.71 mM and 2.4 mM
  paralysis of neck and reduced body bend amplitude but not as obvious a phenotype as Verapamil: Show
N2 non-transgenic worms; 2.4 mM, 20 min, Trials 3-4
  proportion of worms: N2: 20 min: 28% N2, and 20 min: 27% N2,
N2 non-transgenic worms; 4.71 mM, 30 min, Trial 2
  proportion of worms: sluggish N2: 30 min: 18%
N2 non-transgenic worms; 4.71 mM, 1 hr, Trials 1-2
  proportion of worms: LOF: 1 hr: 100%

## COc1cc2c3cc1Oc1c(OC)c(OC)cc4c1[C@@H](Cc1ccc(O)c(c1)Oc1ccc(cc1)C[C@@H]3N(C)CC2)N(C)CC4 [Berbamine dihydrochloride, Berbamine]
[1]; 4.4 mM, 30 min, Trial 3
  proportion of worms: LOF: GOF, 25% LOF.
[1]; 4.4 mM, 30 min, Trials 1-3
  proportion of worms: rescue: 30 min: 20% and 30 min: 70% and 30 min: 33%
[1]; 4.4 mM, 1 hr, Trial 1
  proportion of worms: rescue: 1 hr: 50-60%
[1]; 4.4 mM, 1 hr, Trials 2-3
  phenotype proportions at 1 hr compared with 30 min: 1 hr: no change.
N2 non-transgenic worms; 4.4 mM, 30 min, Trial 1
  response: 30 min: No
N2 non-transgenic worms; 4.4 mM, 30 min, Trials 2-3
  proportion of worms: “rescue”: 30 min: 70% and 30 min: 30%
N2 non-transgenic worms; 4.4 mM, 1 hr, Trial 3
  phenotype proportions at 1 hr compared with 30 min: 1 hr: no change.

## CN1CCOC(c2ccccc2)c2ccccc2C1 (centres unmarked) [Nefopam]
[1]; 3.3 mM, 20 min, Trial 3
  proportion of worms: LOF: rescue, 30%
[1]; 3.3 mM, 20 min, Trial 4
  proportion of worms: GOF: rescue, 31% GOF.
[1]; 3.3 mM, 20 min, Trials 3-4
  proportion of worms: rescue: 20 min: 70% and 20 min: 69%
[1]; 3.3 mM, 40 min, Trial 3
  proportion of worms: GOF: rescue, 8% GOF,
  proportion of worms: LOF: 67% LOF.
[1]; 3.3 mM, 40 min, Trials 3-4 (Trial 4: sluggish)
  proportion of worms: rescue: 40 min: 100% and 40 min: 25%
[1]; 6.65 mM, 20 min, Trials 1-2
  proportion of worms: rescue: 20 min: 33% and 20 min: 90%
[1]; 6.65 mM, 50 min, Trial 2
  proportion of worms: rescue: 50 min: 60%
N2 non-transgenic worms; 3.3 mM, 20 min, Trials 3-4
  proportion of worms: “rescue”: 20 min: 15% and 20 min: 7%
N2 non-transgenic worms; 6.65 mM, 20 min, Trials 1-2
  proportion of worms: “rescue”: 20 min: 9% and 20 min: 23%
N2 non-transgenic worms; 6.65 mM, 50 min, Trials 1-2
  proportion of worms: LOF: 50 min: 100%
Outward K+ currents
  effect on Outward K+ currents: blocked

## CCOC(=O)C1=C(COCCN)NC(C)=C(C(=O)OC)C1c1ccccc1Cl (centres unmarked) [Amlodipine Besylate, Amlodipine]
[1]; 1.25 mM, 30 mins, Trial 4
  proportion of worms: GOF: rescue, 36% GOF.
  proportion of worms: rescue: 30 mins: 64%
[1]; 1.25 mM, 1 hr, Trial 4
  proportion of worms: GOF: 27%
  proportion of worms: LOF: 9%
  proportion of worms: rescue: 1 hr: 64% rescue,
N2 non-transgenic worms; 1.25 mM, 30 mins, Trial 4
  proportion of worms: “rescue” (slight but present): 30 mins: 50%
N2 non-transgenic worms; 1.25 mM, 1 hr, Trial 4
  proportion of worms: WT(N2): 10% WT(N2).
  proportion of worms: rescue: 1 hr: 90% rescue,
Outward K+ currents
  effect on Outward K+ currents: blocked
